Publication PMC6133161, “Thiazoles with cyclopropyl fragment as antifungal, anticonvulsant, and anti-Toxoplasma gondii agents: synthesis, toxicity evaluation, and molecular docking study” (Medicinal Chemistry Research, 2018)
Values after ≈ are worked out from the molar mass of the structure shown.

Experiments:
C. lusitaniae = test: Broth microdilution MIC/MFC, clinical isolate; assay type: cell-based; settings: Clavispora lusitaniae, C. lusitaniae clinical strain; for MFC: read-out: MFC; for MIC: read-out: MIC
Description: (§1) In the study of antifungal activity of the compounds 3a–3j, 15 clinical strains of different species of yeasts from Candida species, namely C. albicans, C. dubliniensis C. famata, C. inconspicua, C. krusei, C. tropicalis, C. glabrata, C. lambica, C. kefyr, C. lusitaniae, C. parapsilosis, C. guilliermondii, C. lusitaniae, C. pulcherrima and C. sake were also used. These fungi were isolated by the author (from Department of Pharmaceutical Microbiology of Medical University in Lublin, Poland) from different clinical materials, e.g., from upper respiratory tract of hospitalized patients including cancer patients (i.e., with non-small cell lung cancer or hematological malignancies). Some patients were after pre-operative or post-operative chemotherapy (treated with etoposide or cis-platin given in doses according to the standard procedures), patients with chronic hepatitis C (undergoing peginterferon and ribavirin therapy or without antiviral therapy), patients with diabetes, elderly people, aged of 65 years old or older, staying in close population, such as a care centre and people staying outside the home care. The Ethical Committee of the Medical University of Lublin approved the study protocol (No. KE-0254/75/2011). The isolates were identified by standard diagnostic methods—biochemical microtest, e.g., API 20C AUX, ID 32C, API Candida (bioMérieux) on the basis of assimilation of various substrates. All the used microbial cultures were first subcultured on nutrient agar or Sabouraud agar for bacteria and fungi, respectively. The RPMI 1640 with MOPS (for fungi) were inoculated with the suspensions of fungal species. Microbial suspensions were prepared in sterile saline (0.85% NaCl) with an optical density of 0.5 McFarland standard scale (Wiegand et al. [2008]). Samples containing examined compounds were dissolved in dimethyl sulfoxide (DMSO). Furthermore, fungal suspensions were put onto Petri dishes with solid media containing 2 mg/ml of the tested compounds followed incubation under appropriate conditions. The inhibition of microbial growth was judged by comparison with a control culture prepared without any sample tested. Nystatin (Sigma) was used as a reference antifungal compound. Subsequently MIC minimal inhibitory concentration (MIC) of the compounds was examined by the microdilution broth method, using their two-fold dilutions in RPMI 1640 broth with MOPS prepared in 96-well polystyrene plates. Final concentrations of the compounds ranged from 1000 to 0.0038 µg/ml. Microbial suspensions were prepared in sterile saline with an optical density of 0.5 McFarland standard. Next fungal suspension was added per each well containing broth and various concentrations of the examined compounds. After incubation, the MIC was assessed spectrophotometric as the lowest concentration of the samples showing complete fungal growth inhibition. Appropriate DMSO, growth and sterile controls were carried out. The medium with no tested substances was used as a control (Wiegand et al. [2008]). The minimal fungicidal concentration (MFC) are defined as the lowest concentration of the compounds that is required to kill a particular fungal species. MFC was determined by removing the culture using for MIC determinations from each well and spotting onto appropriate agar medium. The plates were incubated. The lowest compounds concentration with no visible growth observed was assessed as a fungicidal concentration. All the experiments were repeated three times and representative data are presented.
(§2) The MFC/MIC ratios were calculated in order to determine fungicidal (MFC/MIC ≤ 4) or fungistatic (MFC/MIC > 4) effect of the tested compounds (O’Donnell et al. [2010]).

C. famata = test: Broth microdilution MIC/MFC, clinical isolate; assay type: cell-based; settings: Debaryomyces hansenii, C. famata clinical strain; for MFC: read-out: MFC; for MIC: read-out: MIC
Description: as §1, §2

C. krusei = test: Broth microdilution MIC/MFC, clinical isolate; assay type: cell-based; settings: Pichia kudriavzevii, C. krusei clinical strain; for MFC: read-out: MFC; for MIC: read-out: MIC
Description: as §1, §2

C. sake = test: Broth microdilution MIC/MFC, clinical isolate; assay type: cell-based; settings: Fermentozyma sake, C. sake clinical strain; for MFC: read-out: MFC; for MIC: read-out: MIC
Description: as §1, §2

C. guilliermondii = test: Broth microdilution MIC/MFC, clinical isolate; assay type: cell-based; settings: Meyerozyma guilliermondii, C. guilliermondii clinical strain; for MFC: read-out: MFC; for MIC: read-out: MIC
Description: as §1, §2

C. tropicalis = test: Broth microdilution MIC/MFC, clinical isolate; assay type: cell-based; settings: Candida tropicalis, C. tropicalis clinical strain; for MFC: read-out: MFC; for MIC: read-out: MIC
Description: as §1, §2

C. inconspicua = test: Broth microdilution MIC/MFC, clinical isolate; assay type: cell-based; settings: Pichia inconspicua, C. inconspicua clinical strain; for MFC: read-out: MFC; for MIC: read-out: MIC
Description: as §1, §2

C. albicans = test: Broth microdilution MIC/MFC, clinical isolate; assay type: cell-based; settings: Candida albicans, C. albicans clinical strain; for MFC: read-out: MFC; for MIC: read-out: MIC
Description: as §1, §2

C. dubliniensis = test: Broth microdilution MIC/MFC, clinical isolate; assay type: cell-based; settings: Candida dubliniensis, C. dubliniensis clinical strain; for MFC: read-out: MFC; for MIC: read-out: MIC
Description: as §1, §2

C. parapsilosis = test: Broth microdilution MIC/MFC, clinical isolate; assay type: cell-based; settings: Lodderomyces parapsilosis, C. parapsilosis clinical strain; for MFC: read-out: MFC; for MIC: read-out: MIC
Description: as §1, §2

[1] = test system: Toxoplasma gondii RH strain; test: [3H]-uracil incorporation assay in VERO host cells; settings: Toxoplasma gondii, Vero
C. kefyr = test: Broth microdilution MIC/MFC, clinical isolate; assay type: cell-based; settings: Kluyveromyces marxianus, C. kefyr clinical strain; for MFC: read-out: MFC; for MIC: read-out: MIC
Description: as §1, §2

C. glabrata = test: Broth microdilution MIC/MFC, clinical isolate; assay type: cell-based; settings: Nakaseomyces glabratus, C. glabrata clinical strain; for MFC: read-out: MFC; for MIC: read-out: MIC
Description: as §1, §2

C. lambica = test: Broth microdilution MIC/MFC, clinical isolate; assay type: cell-based; settings: Pichia fermentans, C. lambica clinical strain
Description: as §1, §2

C. pulcherrima = test: Broth microdilution MIC/MFC, clinical isolate; assay type: cell-based; settings: C. pulcherrima clinical strain
Description: as §1, §2

[2] = read-out: Proliferation of Toxoplasma gondii RH strain ± SD

MIC (C. lusitaniae) [µg/mL]	MIC (C. famata) [µg/mL]	MIC (C. krusei) [µg/mL]	MIC (C. sake) [µg/mL]	MIC (C. guilliermondii) [µg/mL]	MIC (C. tropicalis) [µg/mL]	MIC (C. inconspicua) [µg/mL]	MIC (C. albicans) [µg/mL]	MIC (C. dubliniensis) [µg/mL]	MIC (C. parapsilosis) [µg/mL]	SMILES	MFC (C. lusitaniae) [µg/mL]	MFC (C. famata) [µg/mL]	MFC (C. krusei) [µg/mL]	MFC (C. sake) [µg/mL]	MFC (C. guilliermondii) [µg/mL]	MFC (C. tropicalis) [µg/mL]	MFC (C. inconspicua) [µg/mL]	MFC (C. albicans) [µg/mL]	MFC (C. dubliniensis) [µg/mL]	MFC (C. parapsilosis) [µg/mL]	also measured
0.98 (≈ 3.75 µM)	7.81 (≈ 29.9 µM)	0.98 (≈ 3.75 µM)	3.91 (≈ 15 µM)	1.95 (≈ 7.46 µM)	0.98 (≈ 3.75 µM)	1.95 (≈ 7.46 µM)	0.98 (≈ 3.75 µM)	1.95 (≈ 7.46 µM)	3.91 (≈ 15 µM)	Fc1ccc(-c2csc(N/N=C/C3CC3)n2)cc1 [Compound 3a, (E)-2-(2-(Cyclopropylmethylene)hydrazinyl)-4-(4-fluorophenyl)thiazole]	3.91 (≈ 15 µM)	62.5 (≈ 239 µM)	1.95 (≈ 7.46 µM)	15.6 (≈ 59.8 µM)	31.2 (≈ 120 µM)	1.95 (≈ 7.46 µM)	3.91 (≈ 15 µM)	3.91 (≈ 15 µM)	3.91 (≈ 15 µM)	7.81 (≈ 29.9 µM)	IC50 ([1]; read-out: IC50 anti-Tg): 18.1 µg/mL (≈ 69.2 µM); activity at 0.98 µg/mL [1, 2]: 95.4 ± 2.41%; activity at 1.95 µg/mL [1, 2]: 97.9 ± 7.49%; activity at 3.91 µg/mL [1, 2]: 96.16 ± 0.61%; activity at 7.81 µg/mL [1, 2]: 84.89 ± 0.78%; activity at 15.63 µg/mL [1, 2]: 49.2 ± 3.59%; activity at 20 µg/mL [1, 2]: 45.6 ± 5.64%; activity at 25 µg/mL [1, 2]: 42.2 ± 0.91%; activity at 31.25 µg/mL [1, 2]: 28.2 ± 5.7%
0.98 (≈ 3.04 µM)	0.12 (≈ 0.372 µM)	0.24 (≈ 0.745 µM)	0.06 (≈ 0.186 µM)	0.12 (≈ 0.372 µM)	0.06 (≈ 0.186 µM)	0.24 (≈ 0.745 µM)	0.12 (≈ 0.372 µM)	0.06 (≈ 0.186 µM)	0.12 (≈ 0.372 µM)	Brc1ccc(-c2csc(N/N=C/C3CC3)n2)cc1 [Compound 3b, (E)-4-(4-Bromophenyl)-2-(2-(cyclopropylmethylene)hydrazinyl)thiazole]	1.95 (≈ 6.05 µM)	0.98 (≈ 3.04 µM)	0.48 (≈ 1.49 µM)	0.24 (≈ 0.745 µM)	0.48 (≈ 1.49 µM)	0.12 (≈ 0.372 µM)	3.91 (≈ 12.1 µM)	1.95 (≈ 6.05 µM)	0.06 (≈ 0.186 µM)	0.12 (≈ 0.372 µM)	MFC (C. kefyr): > 1000 µg/mL; MIC (C. kefyr): 15.6 µg/mL (≈ 48.5 µM); MFC (C. glabrata): > 1000 µg/mL; MIC (C. glabrata): 62.5 µg/mL (≈ 194 µM); activity at 0.98 µg/mL [1, 2]: 85.8 ± 10.6%; activity at 1.95 µg/mL [1, 2]: 99.3 ± 6.08%; activity at 3.91 µg/mL [1, 2]: 107 ± 10.2%; activity at 7.81 µg/mL [1, 2]: 111 ± 10.1%
0.12 (≈ 0.432 µM)	0.12 (≈ 0.432 µM)	0.12 (≈ 0.432 µM)	0.12 (≈ 0.432 µM)	0.24 (≈ 0.864 µM)	0.12 (≈ 0.432 µM)	0.98 (≈ 3.53 µM)	0.06 (≈ 0.216 µM)	0.03 (≈ 0.108 µM)	0.03 (≈ 0.108 µM)	Clc1ccc(-c2csc(N/N=C/C3CC3)n2)cc1 [Compound 3c, (E)-4-(4-Chlorophenyl)-2-(2-(cyclopropylmethylene)hydrazinyl)thiazole]	0.12 (≈ 0.432 µM)	0.98 (≈ 3.53 µM)	0.48 (≈ 1.73 µM)	0.98 (≈ 3.53 µM)	0.98 (≈ 3.53 µM)	0.12 (≈ 0.432 µM)	3.91 (≈ 14.1 µM)	0.98 (≈ 3.53 µM)	0.06 (≈ 0.216 µM)	0.12 (≈ 0.432 µM)	MFC (C. lambica; read-out: MFC): > 1000 µg/mL; MIC (C. lambica; read-out: MIC): 125 µg/mL (≈ 450 µM); MFC (C. pulcherrima; read-out: MFC): > 1000 µg/mL; MIC (C. pulcherrima; read-out: MIC): 125 µg/mL (≈ 450 µM); MFC (C. kefyr): > 1000 µg/mL; MIC (C. kefyr): 31.2 µg/mL (≈ 112 µM); MFC (C. glabrata): > 1000 µg/mL; MIC (C. glabrata): 500 µg/mL (≈ 1800 µM); activity at 0.98 µg/mL [1, 2]: 106.78 ± 0.02%; activity at 1.95 µg/mL [1, 2]: 108 ± 4.34%; activity at 3.91 µg/mL [1, 2]: 114 ± 6.65%
